Assay: surface tension of aqueous surfactant solutions and critical micelle concentration (K-12 Processor Tensiometer)
Assay type: physicochemical
Conditions: carboxylate salts, deionized water; Table 5
Description: Critical Micelle Concentration (CMC): The critical micelle concentration is defined as the concentration at which further surface tension is no longer lowered with increasing levels of surfactant. […] Surface tension is then plotted vs. log concentration and the data points are connected. The resulting curve has a nearly horizontal flat portion at concentrations above the CMC and has a negative steep slope at concentrations below the CMC. The CMC is defined as the lowest surfactant concentration in the horizontal flat portion of the curve.
(§1) Then the critical micelle concentration (CMC) was determined for each surfactant.
as §1

Compared with `O=C(O)C(F)(C(F)(F)F)C(F)(F)C(F)(F)C(F)(F)C(F)(F)C(F)(F)C(F)(F)F` (centres unmarked) [Example M16, C6 F13 CF(CF3)COO^- H4 N^+], `O=C(O)C(F)(C(F)(F)F)C(F)(F)C(F)(F)C(F)(F)C(F)(F)C(F)(F)C(F)(F)C(F)(F)F` (centres unmarked) [Example M20, C7 F15 CF(CF3)COO^- H3 N^+ C2 H4 OH] is lower in CMC: 8000 ppm for the first, 500 ppm for the second.

Compared with `O=C(O)C(F)(C(F)(F)F)C(F)(F)C(F)(F)C(F)(F)C(F)(F)C(F)(F)C(F)(F)C(F)(F)F` (centres unmarked) [Example M26, C7 F15 CF(CF3)COO^- Na^+], `O=C(O)C(F)(C(F)(F)F)C(F)(F)C(F)(F)C(F)(F)C(F)(F)C(F)(F)C(F)(F)F` (centres unmarked) [Example M22, C6 F13 CF(CF3)COO^- K^+] is higher in CMC: 3000 ppm for the first, 10000 ppm for the second.

Compound `O=C(O)C(F)(C(F)(F)F)C(F)(F)C(F)(F)C(F)(F)C(F)(F)C(F)(F)C(F)(F)C(F)(F)F` (centres unmarked) [Example M27, C7 F15 CF(CF3)COO^- Li^+] has a CMC of 3500 ppm.

Compared with `O=C(O)C(F)(C(F)(F)F)C(F)(F)C(F)(F)C(F)(F)C(F)(F)C(F)(F)C(F)(F)F` (centres unmarked) [Example M16, C6 F13 CF(CF3)COO^- H4 N^+], `O=C(O)C(F)(C(F)(F)F)C(F)(F)C(F)(F)C(F)(F)C(F)(F)C(F)(F)C(F)(F)C(F)(F)F` (centres unmarked) [Example M20, C7 F15 CF(CF3)COO^- H3 N^+ C2 H4 OH] is lower in “Surf. Tens. at the CMC” value: 17.9 dynes/cm for the first, 15.0 dynes/cm for the second.

Going from `O=C(O)C(F)(C(F)(F)F)C(F)(F)C(F)(F)C(F)(F)C(F)(F)C(F)(F)F` (centres unmarked) [Example M21, C5 F11 CF(CF3)COO^- K^+] to `O=C(O)C(F)(C(F)(F)F)C(F)(F)C(F)(F)C(F)(F)C(F)(F)C(F)(F)C(F)(F)F` (centres unmarked) [Example M22, C6 F13 CF(CF3)COO^- K^+], the “Surf. Tens. at the CMC” value falls from 22.5 dynes/cm to 17.5 dynes/cm.

Compared with `O=C(O)C(F)(C(F)(F)F)C(F)(F)C(F)(F)C(F)(F)C(F)(F)C(F)(F)C(F)(F)C(F)(F)F` (centres unmarked) [Example M26, C7 F15 CF(CF3)COO^- Na^+], `O=C(O)C(F)(C(F)(F)F)C(F)(F)C(F)(F)C(F)(F)C(F)(F)C(F)(F)F` (centres unmarked) [Example M15, C5 F11 CF(CF3)COO^- H4 N^+] is higher in “Surf. Tens. at the CMC” value: 19.4 dynes/cm for the first, 22.1 dynes/cm for the second.

In the case of `O=C(O)C(F)(C(F)(F)F)C(F)(F)C(F)(F)C(F)(F)C(F)(F)C(F)(F)C(F)(F)C(F)(F)F` (centres unmarked) [Example M27, C7 F15 CF(CF3)COO^- Li^+], the “Surf. Tens. at the CMC” value is reported as 24.1 dynes/cm.

`O=C(O)C(F)(C(F)(F)F)C(F)(F)C(F)(F)C(F)(F)C(F)(F)C(F)(F)F` (centres unmarked) [Example M21, C5 F11 CF(CF3)COO^- K^+] gave a CMC of over 10000 ppm.
For `O=C(O)C(F)(C(F)(F)F)C(F)(F)C(F)(F)C(F)(F)C(F)(F)C(F)(F)F` (centres unmarked) [Example M15, C5 F11 CF(CF3)COO^- H4 N^+], the CMC was over 10000 ppm.

Same assay, conditions: deionized water; Table 3

Going from `O=C(NCCOC(=O)C(F)(C(F)(F)F)C(F)(F)C(F)(F)C(F)(F)C(F)(F)C(F)(F)C(F)(F)C(F)(F)F)c1cc[n+]([O-])cc1` (centres unmarked) [Example E10] to `C[N+](C)(CCCN(CCC[N+](C)(C)CCC(=O)[O-])C(=O)C(F)(C(F)(F)F)C(F)(F)C(F)(F)C(F)(F)C(F)(F)C(F)(F)C(F)(F)C(F)(F)F)CCC(=O)[O-]` (centres unmarked) [Example K4], the CMC falls from 400 ppm to 100 ppm.

Going from `O=C(OCCc1cccc[n+]1[O-])C(F)(C(F)(F)F)C(F)(F)C(F)(F)C(F)(F)C(F)(F)C(F)(F)C(F)(F)C(F)(F)F` (centres unmarked) [Example E13] to `C[N+](C)(CCO)CCCNC(=O)C(F)(C(F)(F)F)C(F)(F)C(F)(F)C(F)(F)C(F)(F)C(F)(F)C(F)(F)C(F)(F)F` (centres unmarked) [Example F4], the CMC falls from 6000 ppm to 300 ppm.

`O=C(NCCC[N+]1(CCO)CCOCC1)C(F)(C(F)(F)F)C(F)(F)C(F)(F)C(F)(F)C(F)(F)C(F)(F)C(F)(F)C(F)(F)F` (centres unmarked) [Example F5] and `O=C(NCCOC(=O)C(F)(C(F)(F)F)C(F)(F)C(F)(F)C(F)(F)C(F)(F)C(F)(F)C(F)(F)F)c1cc[n+]([O-])cc1` (centres unmarked) [Example E11] are the same in CMC: 1000 ppm for the first, 1000 ppm for the second.

First: O=C(OCCc1cccc[n+]1[O-])C(F)(C(F)(F)F)C(F)(F)C(F)(F)C(F)(F)C(F)(F)C(F)(F)C(F)(F)F (centres unmarked) [Example E12]
Second: C[N+](C)(CCO)CCCNC(=O)C(F)(C(F)(F)F)C(F)(F)C(F)(F)C(F)(F)C(F)(F)C(F)(F)F (centres unmarked) [Example F3]
The CMC of the first is higher: 8000 ppm for the first, 1000 ppm for the second.

Going from `CN(C)CCCN(CCCN(C)C)C(=O)C(F)(C(F)(F)F)C(F)(F)C(F)(F)C(F)(F)C(F)(F)C(F)(F)C(F)(F)C(F)(F)F` (centres unmarked) [Example F9, C7 F15 CF(CF3)CON[C3 H6 N^+ (CH3)2 H]2 2[^- OOCCH3]] to `C[n+]1ccc(C(=O)NCCOC(=O)C(F)(C(F)(F)F)C(F)(F)C(F)(F)C(F)(F)C(F)(F)C(F)(F)C(F)(F)F)cc1` (centres unmarked) [Example F2], the CMC falls from 1000 ppm to 30 ppm.

First: C6 F13 CF(CF3)CON(C3 H6 SO3^-)(CH2)3 N^+ (CH3)2 H [Example K2]
Second: C[N+](C)([O-])CCCNC(=O)C(F)(C(F)(F)F)C(F)(F)C(F)(F)C(F)(F)C(F)(F)C(F)(F)C(F)(F)F (centres unmarked) [Example E3, C6 F13 CF(CF3)CONH(CH2)3 N^+ (CH3)2 O^-]
The CMC of the first is higher: 500 ppm for the first, 100 ppm for the second.

Compared with `O=C(NCCOC(=O)C(F)(C(F)(F)F)C(F)(F)C(F)(F)C(F)(F)C(F)(F)C(F)(F)C(F)(F)C(F)(F)F)c1cc[n+]([O-])cc1` (centres unmarked) [Example E10], `C[N+](C)(CCCN(CCC[N+](C)(C)CCC(=O)[O-])C(=O)C(F)(C(F)(F)F)C(F)(F)C(F)(F)C(F)(F)C(F)(F)C(F)(F)C(F)(F)C(F)(F)F)CCC(=O)[O-]` (centres unmarked) [Example K4] is higher in “Surf. Tens. at the CMC” value: 14.5 dynes/cm for the first, 23.6 dynes/cm for the second.

Going from `O=C(OCCc1cccc[n+]1[O-])C(F)(C(F)(F)F)C(F)(F)C(F)(F)C(F)(F)C(F)(F)C(F)(F)C(F)(F)C(F)(F)F` (centres unmarked) [Example E13] to `C[N+](C)(CCO)CCCNC(=O)C(F)(C(F)(F)F)C(F)(F)C(F)(F)C(F)(F)C(F)(F)C(F)(F)C(F)(F)C(F)(F)F` (centres unmarked) [Example F4], the “Surf. Tens. at the CMC” value rises from 15.0 dynes/cm to 19.0 dynes/cm.

Compared with `O=C(NCCC[N+]1(CCO)CCOCC1)C(F)(C(F)(F)F)C(F)(F)C(F)(F)C(F)(F)C(F)(F)C(F)(F)C(F)(F)C(F)(F)F` (centres unmarked) [Example F5], `O=C(NCCOC(=O)C(F)(C(F)(F)F)C(F)(F)C(F)(F)C(F)(F)C(F)(F)C(F)(F)C(F)(F)F)c1cc[n+]([O-])cc1` (centres unmarked) [Example E11] is lower in “Surf. Tens. at the CMC” value: 20.8 dynes/cm for the first, 15.5 dynes/cm for the second.

First: O=C(OCCc1cccc[n+]1[O-])C(F)(C(F)(F)F)C(F)(F)C(F)(F)C(F)(F)C(F)(F)C(F)(F)C(F)(F)F (centres unmarked) [Example E12]
Second: C[N+](C)(CCO)CCCNC(=O)C(F)(C(F)(F)F)C(F)(F)C(F)(F)C(F)(F)C(F)(F)C(F)(F)F (centres unmarked) [Example F3]
The “Surf. Tens. at the CMC” value of the first is higher: 18.3 dynes/cm for the first, 17.0 dynes/cm for the second.

Going from `CN(C)CCCN(CCCN(C)C)C(=O)C(F)(C(F)(F)F)C(F)(F)C(F)(F)C(F)(F)C(F)(F)C(F)(F)C(F)(F)C(F)(F)F` (centres unmarked) [Example F9, C7 F15 CF(CF3)CON[C3 H6 N^+ (CH3)2 H]2 2[^- OOCCH3]] to `C[n+]1ccc(C(=O)NCCOC(=O)C(F)(C(F)(F)F)C(F)(F)C(F)(F)C(F)(F)C(F)(F)C(F)(F)C(F)(F)F)cc1` (centres unmarked) [Example F2], the “Surf. Tens. at the CMC” value falls from 22.0 dynes/cm to 15.5 dynes/cm.

First: C6 F13 CF(CF3)CON(C3 H6 SO3^-)(CH2)3 N^+ (CH3)2 H [Example K2]
Second: C[N+](C)([O-])CCCNC(=O)C(F)(C(F)(F)F)C(F)(F)C(F)(F)C(F)(F)C(F)(F)C(F)(F)C(F)(F)F (centres unmarked) [Example E3, C6 F13 CF(CF3)CONH(CH2)3 N^+ (CH3)2 O^-]
The “Surf. Tens. at the CMC” value of the first is higher: 20.3 dynes/cm for the first, 16.6 dynes/cm for the second.

With `O=C(NCCC[N+]1([O-])CCOCC1)C(F)(C(F)(F)F)C(F)(F)C(F)(F)C(F)(F)C(F)(F)C(F)(F)C(F)(F)C(F)(F)F` (centres unmarked) [Example E9] the “solubility remark” value was “low solub”.

Assay: thermal degradation in water and characterization of volatile products
Assay type: physicochemical
Conditions: aqueous solution, similar way
Description: The thermal degradation of an aqueous α-branched perfluoroalkylcarbonyl fluoride and the characterization of the products produced from the degradation were carried out using the following procedure. […] 5.7 g of volatile degradation products were then collected by azeotropic distillation using a Dean-Stark apparatus.
The thermal degradation of C7 F15 CF(CF3)COF (from Example A4) dispersed in water was also carried out by heating the aqueous mixture for several hours at approximately 80° C.

For `O=C(O)C(F)(C(F)(F)F)C(F)(F)C(F)(F)C(F)(F)C(F)(F)C(F)(F)C(F)(F)C(F)(F)F` (centres unmarked) [Example M1, C7 F15 CF(CF3)COOH], the “degradation products in aqueous solution” value was “the same monohydride and olefin”.

Same assay, conditions: deionized water, refluxed 2 hours

With `O=C(F)C(F)(C(F)(F)F)C(F)(F)C(F)(F)C(F)(F)C(F)(F)C(F)(F)C(F)(F)C(F)(F)F` (centres unmarked) [Example A1, C7 F15 CF(CF3)COF] the “monohydride C7 F15 CFHCF3 in degradation products” value was 85%.

Same assay, conditions: deionized water, refluxed 2 hours; cis/trans mixture

For `O=C(F)C(F)(C(F)(F)F)C(F)(F)C(F)(F)C(F)(F)C(F)(F)C(F)(F)C(F)(F)C(F)(F)F` (centres unmarked) [Example A1, C7 F15 CF(CF3)COF], the “olefin C6 F13 CF=CFCF3 in degradation products” value was 15%.

Same assay, conditions: from 8 g, water, refluxed 2 hours

In the case of `O=C(F)C(F)(C(F)(F)F)C(F)(F)C(F)(F)C(F)(F)C(F)(F)C(F)(F)C(F)(F)C(F)(F)F` (centres unmarked) [Example A1, C7 F15 CF(CF3)COF], the “volatile degradation products collected” value is reported as 5.7 g.

Same assay, conditions: water, several hours at approximately 80° C.

With `O=C(F)C(F)(C(F)(F)F)C(F)(F)C(F)(F)C(F)(F)C(F)(F)C(F)(F)C(F)(F)C(F)(F)F` (centres unmarked) [Example A1, C7 F15 CF(CF3)COF] the volatile products formed was “The same volatile products were formed”.

Reference: patent US6013795A, “Alpha-branched fluoroalkylcarbonyl fluorides and their derivatives” (3M Innovative Properties Company, priority 1996, dated 2000)
